# Experimental data published in US20250327028A1, “ENGINEERED PLATELETS AS TARGETED PROTEIN DEGRADERS” (Wisconsin Alumni Research Foundation, priority 2024, published 2025).
# Assays:
# HSP90 [1] = experiment: Streptavidin-bead immunoprecipitation of biotin-labeled HSP90 in platelets treated with HAC-B; type: cell-based, BALB/c mice
# Procedure: The immunoprecipitation assays based on the streptavidin-biotin system were used to evaluate the engineering efficiency of HAC-B on platelets. The fresh platelets were isolated from the whole blood of BALB/c mice as described above. PBS containing PGE1 ([…]) was adopted to dilute the platelets to a final concentration of 1×10^8 platelets/mL, and a total amount of 2×10^8 platelets (2 mL) was assigned for each sample in one tube. The HAC-B stock solution in DMSO was added to each tube at a final concentration of 2.5, 5, or 10 μM, and then the samples were placed in an orbital shaker with a speed of 50 rpm and incubated for 2 h at room temperature (blank DMSO serve as 0 μM). Meanwhile, other tubes containing the same platelet suspensions were added with HAC-B stock solution at a final concentration of 10 μM, which were shaken at the same conditions for 0.5, 1, 2, 3, or 4 h (the platelet suspension that was centrifugated immediately after HAC-B addition serves as the 0 h group). […] The total proteins in the supernatants were quantified through the BCA assay, and 10 μL of lysate supernatants were saved as the input samples. […]
# HSP90 [2] = experiment: Quantification of biotin-labeled contents in platelets (biotin quantitation kit); type: cell-based, BALB/c mice; conditions: 2 h
# Procedure: The fresh platelets were incubated with HAC-B at 2.5, 5, 10, 20, and 40 μM for 2 h, and the corresponding lysates were collected using the IP lysis buffer containing PMSF and phosphatase inhibitor cocktail. The biotin-labeled contents in each lysate supernatant were quantified by the QuantTag™ biotin quantitation kit, and the relevant engineering efficiency was calculated based on dividing the amount of biotin-labeled contents by the HAC-B amount added.
# 4T1 cells [3] = experiment: HAC-B-mediated internalization of streptavidin in 4T1 cells; type: cell-based, murine; conditions: 4T1 cells pretreated 5 μM 2 h, vs cells without pretreatment
# Procedure: HAC-B-mediated internalization of streptavidin in 4T1 cells: 5×10^4 4T1 cells were seeded in a confocal dish and cultured for 24 h at 37° C. Then, the cells were treated with free HAC-B at 5 μM for 2 h. Next, the drug-containing medium was removed, and PBS was used to wash the cells twice, followed by incubating the cells in the blank medium containing streptavidin-FITC at 0.5 μM for 1 h. For cotreatment, 4T1 cells were cotreated with 5 μM HAC-B and 0.5 μM FITC-SA for 1 h. Before staining with Hoechst 33342, the cells were washed with PBS twice and fixed with 4% PFA at room temperature for 20 min. Finally, the cells were subjected to Leica SP8 Confocal WLL STED microscopy for observation.
# 4T1 cells [4] = experiment: In-gel fluorescence detection of NA-647 internalization in 4T1 cells cotreated with HAC-B; type: cell-based, murine; conditions: 4T1 cells cotreated with HAC-B (all concentrations) and NA-647, 2 h
# Procedure: In-gel fluorescence detection: In-gel fluorescence was mainly used to investigate the internalization of NeutrAvidin™_647 in HAC-B-treated cancer cells.
# Sample preparation: 4T1 or WT MDA-MB-231 cells were seeded in 6-well culture plates with a density of 5×10^4 cells in each well and cultured for 24 h. If HAI pretreatment was performed, the cells were incubated in the HAI-containing blank medium at different concentrations for 2 h and washed with PBS twice before the following treatments. Then, the cells were treated with free HAC-B or the combinations of various ligands at the indicated concentrations for the predetermined time points. Next, the drug-containing medium was removed, and PBS was used to wash the cells twice, followed by incubating the cells in the blank medium containing NeutrAvidin™ DyLight™ 650 (NA-647, Invitrogen/84607) at 0.5 μM for 1 h. […]
# In-gel fluorescence imaging: After 30-min lysis, the lysates were centrifuged at 10,000 g for 10 minutes at 4° C., and the corresponding supernatants were collected, followed by quantification of the total proteins in the supernatant through the BCA assay. […] After the proteins were separated, the gels were subjected to fluorescence imaging with the ChemiDoc™ MP imaging system (Bio-Rad).
smiles,measurement,setting,value
"N#CCN(C(=O)CCCC[C@@H]1SC[C@@H]2NC(=O)N[C@@H]21)S(=O)(=O)c1ccc(C(=O)NCCCn2c(Sc3cc4c(cc3I)OCO4)nc3c(N)ncnc32)cc1 [HAC-B, N-(3-(6-amino-8-((6-iodobenzo[d][1,3]dioxol-5-yl)thio)-9H-purin-9-yl)propyl)-4-(N-(cyanomethyl)-N-(5-((3aS,4S,6aR)-2-oxohexahydro-1H-thieno[3,4-d]imidazol-4-yl)pentanoyl)sulfamoyl)benzamide]",concentration dependence of HSP90 tethering in platelets,HSP90 [1]; 2 h,in a concentration-dependent manner
same,incubation time at which biotin labeling of HSP90 in platelets approaches a maximum,HSP90 [1]; HAC-B 10 μM,~2 h
same,HAC-B concentration at which biotin-labeled content inside platelets reaches a peak,HSP90 [2],20 µM
same,internalization of streptavidin-FITC,4T1 cells [3],much stronger green fluorescence signals
same,internalization of NA-647 on cotreatment,4T1 cells [4],failed to internalize NA-647 in a large quantity within 2 h
